Test results taken from patent publication US20170253601A1, “Substituted Pyrrolidine Compounds” (EPIZYME, INC., priority 2014, published 2017).

Target: T1, SMYD2 (Homo sapiens, UniProt Q9NRG4)
T1 construct: Full length SMYD2 (NP 064582.2) was cloned; His6 (N, cleaved yes); FLAG (N); made in house; host or cells: Sf9 insect cells
Test: SMYD2 Biochemical Assay (3H-SAM, biotinylated peptide substrate, Flashplate)
Settings: IC50 values are an average of n = 1 to n = 50; read-out: SMYD2 Biochem IC50 (μM)*
Outline: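 Full-length His/FLAG-tagged SMYD2 expressed in Sf9 cells with tag cleaved, 1.5 nM, pre-incubated 30 min at room temperature with compound, then 10 nM 3H-SAM and 60 nM biotinylated peptide added. Buffer 20 mM Bicine pH 7.6, 1 mM TCEP, 0.005% BSG, 0.002% Tween20, 2% DMSO. Stopped with 600 uM cold SAM; 3H-peptide captured on streptavidin Flashplate; IC50 by curve fit.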

T1 sequence (Q9NRG4 whole entry): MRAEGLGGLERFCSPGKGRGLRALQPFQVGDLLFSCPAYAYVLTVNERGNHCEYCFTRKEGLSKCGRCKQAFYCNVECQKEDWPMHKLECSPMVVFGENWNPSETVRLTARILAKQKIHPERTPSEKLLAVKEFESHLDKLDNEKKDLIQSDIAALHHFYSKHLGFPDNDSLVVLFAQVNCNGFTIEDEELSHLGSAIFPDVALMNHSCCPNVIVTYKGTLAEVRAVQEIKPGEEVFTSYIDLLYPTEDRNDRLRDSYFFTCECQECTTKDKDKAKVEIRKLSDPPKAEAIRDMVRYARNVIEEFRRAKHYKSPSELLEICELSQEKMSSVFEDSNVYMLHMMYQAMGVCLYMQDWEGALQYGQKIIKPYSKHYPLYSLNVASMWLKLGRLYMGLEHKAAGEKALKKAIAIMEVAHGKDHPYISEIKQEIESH

Row | IC50 [µM] | Structure (SMILES)
1 | > 50 | C[C@@H]1CN(CC(C)(C)C)C[C@H]1NC(=O)c1cc(C2CC2)on1 (racemic) [compound 130, (±)-trans-5-cyclopropyl-N-[(3S,4R)-1-(2,2-dimethylpropyl)-4-methylpyrrolidin-3-yl]-1,2-oxazole-3-carboxamide]
2 | > 50 | CCc1nc(C)c(CN2C[C@@H](C)[C@H](NC(=O)c3cc(C4CC4)on3)C2)[nH]1 (racemic) [compound 131, (±)-trans-5-cyclopropyl-N-[1-[(2-ethyl-4-methyl-1H-imidazol-5-yl)methyl]-4-methyl-pyrrolidin-3-yl]-1,2-oxazole-3-carboxamide]
3 | > 50 | C[C@@H]1CN(CCC2CCN(C(=O)OC(C)(C)C)CC2)C[C@H]1NC(=O)c1cc(C2CC2)on1 (racemic) [compound 132]
4 | > 50 | C[C@@H]1CN(CCC2CCNCC2)C[C@H]1NC(=O)c1cc(C2CC2)on1 (racemic) [compound 133, (±)-trans-5-cyclopropyl-N-[4-methyl-1-[2-(piperidin-4-yl)ethyl]pyrrolidin-3-yl]-1,2-oxazole-3-carboxamide]
5 | > 50 | COc1ccc(CN2C[C@@H](C)[C@H](NC(=O)c3cc(C4CC4)on3)C2)c(OC)c1 (racemic) [compound 134, (±)-trans--cyclopropyl-N-[1-[(2,4-dimethoxy-phenyl)methyl]-4-methylpyrrolidin-3-yl]-1,2-oxazole-3-carboxamide]
6 | > 50 | C[C@@H]1CN(Cc2cccc3c2OCO3)C[C@H]1NC(=O)c1cc(C2CC2)on1 (racemic) [compound 135, (±)-trans-N-[1-(2H-1,3-benzodioxol-4-ylmethyl)-4-methyl-pyrrolidin-3-yl]-5-cyclopropyl-1,2-oxazole-3-carboxamide]
7 | > 50 | C[C@@H]1CN(Cc2ccc(Cl)cc2Cl)C[C@H]1NC(=O)c1cc(C2CC2)on1 (racemic) [compound 136, (±)-trans-5-cyclopropyl-N-[1-[(2,4-dichloro-phenyl)methyl]-4-methylpyrrolidin-3-yl]-1,2-oxazole-3-carboxamide]
8 | > 50 | C[C@@H]1CN(CC2CCOC2)C[C@H]1NC(=O)c1cc(C2CC2)on1 (mixture of isomers) [compound 137, (±)-trans-5-cyclopropyl-N-[4-methyl-1-(oxolan-3-ylmethyl)pyrrolidin-3-yl]-1,2-oxazole-3-carboxamide]
9 | 48.1 | CC(C)N1C[C@H](NC(=O)c2cc(C3CC3)on2)[C@@H](C2CC2)C1 (racemic) [compound 138, (±)-trans-5-cyclopropyl-N-[4-cyclopropyl-1-(propan-2-yl)pyrrolidin-3-yl]-1,2-oxazole-3-carboxamide]
10 | > 50 | C[C@@H]1CN(Cc2ncc[nH]2)C[C@H]1NC(=O)c1cc(C2CC2)on1 (racemic) [compound 139, (±)-trans-5-cyclopropyl-N-[1-(1H-imidazol-2-ylmethyl)-4-methylpyrrolidin-3-yl]-1,2-oxazole-3-carboxamide]
11 | > 50 | C[C@@H]1CN(Cc2ccc(Cl)cc2)C[C@H]1NC(=O)c1cc(C2CC2)on1 (racemic) [compound 140, (±)-trans-N-{1-[(4-chlorophenyl)methyl]-4-methylpyrrolidin-3-yl]-5-cyclopropyl-1,2-oxazole-3-carboxamide]
12 | > 50 | CN1C[C@H](NC(=O)c2cc(C3CC3)on2)[C@@H](C2CC2)C1 (racemic) [compound 141, (±)-trans-5-cyclopropyl-N-[4-cyclopropyl-1-methylpyrrolidin-3-yl]-1,2-oxazole-3-carboxamide]
13 | 27.5 | C[C@@H]1CN(Cc2ccccc2Cl)C[C@H]1NC(=O)c1cc(C2CC2)on1 (racemic) [compound 142, (±)-trans-N-1-[(2-chlorophenyl)methyl]-4-methylpyrrolidin-3-yl]-5-cyclopropyl-1,2-oxazole-3-carboxamide]
14 | > 50 | CC(C)CCN1C[C@@H](C)[C@H](NC(=O)c2cc(C3CC3)on2)C1 (racemic) [compound 143, (±)-trans-5-cyclopropyl-N-[4-methyl-1-(3-methylbutyl)pyrrolidin-3-yl]-1,2-oxazole-3-carboxamide]
15 | > 50 | CN1C[C@H](NC(=O)c2cc(C3CC3)on2)[C@@H](C(C)(C)C)C1 (racemic) [compound 144, (±)-trans-N-[4-tert-butyl-1-methylpyrrolidin-3-yl]-5-cyclopropyl-1,2-oxazole-3-carboxamide]
16 | > 50 | CC(C)N1C[C@H](NC(=O)c2cc(C3CC3)on2)[C@@H](C(C)(C)C)C1 (racemic) [compound 146, (±)-trans-N-[4-tert-butyl-1-(propan-2-yl)pyrrolidin-3-yl]-5-cyclopropyl-1,2-oxazole-3-carboxamide]
17 | 37 | C[C@@H]1CN(Cc2ccc(N(C)C)cc2)C[C@H]1NC(=O)c1cc(C2CC2)on1 (racemic) [compound 148, (±)-trans-5-cyclopropyl-N-[1-{[4-(dimethyl-amino)phenyl]methyl}-4-methylpyrrolidin-3-yl]-1,2-oxazole-3-carboxamide]
18 | 45.6 | COc1ccc(CN2C[C@@H](C)[C@H](NC(=O)c3cc(C4CC4)on3)C2)cc1 (racemic) [compound 149, (±)-trans-5-cyclopropyl-N-[1-[(4-methoxy-phenyl)methyl]-4-methylpyrrolidin-3-yl]-1,2-oxazole-3-carboxamide]
19 | 44.9 | CCC[C@H]1CN(C)C[C@@H]1NC(=O)c1cc(C2CC2)on1 (racemic) [compound 150, (±)-trans-5-cyclopropyl-N-[1-methyl-4-propylpyrrolidin-3-yl]-1,2-oxazole-3-carboxamide]
20 | > 50 | CCC[C@H]1CN(C(C)C)C[C@@H]1NC(=O)c1cc(C2CC2)on1 (racemic) [compound 151, (±)-trans-5-cyclopropyl-N-[1-(propan-2-yl)-4-propylpyrrolidin-3-yl]-1,2-oxazole-3-carboxamide]
21 | > 50 | C[C@@H]1CN(Cc2cc3ccccc3s2)C[C@H]1NC(=O)c1cc(C2CC2)on1 (racemic) [compound 152, (±)-trans-N-[1-(1-benzothiophen-2-ylmethyl)-4-methyl-pyrrolidin-3-yl]-5-cyclopropyl-1,2-oxazole-3-carboxamide]
22 | 39.1 | CC(C)C[C@H]1CN(C)C[C@@H]1NC(=O)c1cc(C2CC2)on1 (racemic) [compound 153, (±)-trans-5-cyclopropyl-N-[1-methyl-4-(2-methylpropyl)pyrrolidin-3-yl]-1,2-oxazole-3-carboxamide]
23 | > 50 | CC(C)C[C@H]1CN(C(C)C)C[C@@H]1NC(=O)c1cc(C2CC2)on1 (racemic) [compound 154, (±)-trans-5-cyclopropyl-N-[4-(2-methylpropyl)-1-(propan-2-yl)pyrrolidin-3-yl]-1,2-oxazole-3-carboxamide]
24 | 4.49 | C[C@H]1CN(CC2CCOC2)C[C@H]1NC(=O)c1cc(C2CC2)on1 (mixture of isomers) [compound 155, (±)-cis-5-cyclopropyl-N-[4-methyl-1-(oxolan-3-ylmethyl)pyrrolidin-3-yl]-1,2-oxazole-3-carboxamide]
25 | > 50 | C[C@@H]1CN(CC2CCC2)C[C@H]1NC(=O)c1cc(C2CC2)on1 (racemic) [compound 156, (±)-trans-N-[1-(cyclobutyl-methyl)-4-methylpyrrolidin-3-yl]-5-cyclopropyl-1,2-oxazole-3-carboxamide]
